What was measured:
Assay type in all cases: functional
Set-up in all cases: concentration or dose not given beside the values
Plasmodium berghei = experiment: MMV: P. berghei-infected blood was withdrawn from mice by cardiac pucture before being immediately added to ookinete culture medium containing test compounds. 26 hr later, GFP-positive ookinetes were identified and counted by automated microscopy. All compounds were tested in 4 independent experiments and data presented here is the mean.
Plasmodium falciparum [1] = experiment: (§1) MMV: P. falciparum NF54 functionally mature Stage V gametocytes were incubated for 24 hr in the presence of the test compounds. Gamete formation was then triggered by addition of 2uM xantheurenic acid and temperature decrease to ~20C. Male gamete exflagellation was recorded and analysed by automated microscopy after 20 min. All compounds were tested in 4 independent experiments and data presented here is the mean.
Plasmodium falciparum [2] = experiment: as §1, with “Female” for “Male”, “formation” for “exflagellation”, “24 hr later” for “and analysed”, “detection of surface labelling of female gametes with a Cy3-conjugated antibody reactive to Pfs25.” for “after 20 min.”; conditions: NF54, 24 h

Compound	inhibition (Plasmodium berghei)	inhibition (Plasmodium falciparum [1])	inhibition (Plasmodium falciparum [2])
CCOc1cc(Cl)c(C(C)NC(=O)c2ccccc2)cc1OCC (stereo unspecified)	-7.982%	32.8%	-37%
Cc1cc(Nc2ccc(Cl)cc2)n2nc(C(F)(F)F)nc2n1	-18.89%	15.3%	-10.6%
COc1ccc(-n2ccnc2SCC(=O)Nc2cc(C)ccc2C)c(OC)c1	-11.96%	12%	-9.31%
O=C(Nc1cccc(C(F)(F)F)c1)c1cc(Cl)ccc1O	-2.67%	24.9%	-6.94%
FC(F)(F)c1cccc(CNC2CCN(CCc3ccccc3)CC2)c1	1.472%	-0.872%	-31.1%
Cc1cc(C)c2nc(N3CCC(C(=O)NCCCN4CCC(N5CCCCC5)CC4)CC3)sc2c1	-9.223%	8.94%	21.7%
O=C(CCc1ccco1)NC1CCN(CC2(c3ccc(Cl)cc3)CCC2)CC1	1.599%	39.4%	-33.1%
OC(CNC1CCCC1)Cn1c2ccccc2c2ccccc21 (stereo unspecified)	-16.75%	-4.27%	12.4%
O=c1c2c([nH]c3ccccc13)CCCC2	6.827%	51%	-24.5%
COc1ccc(-c2nonc2NC(=O)c2cccc(Cl)c2)cc1OC	-15.75%	18.1%	12%
COc1cc(SC)ccc1C(=O)N1CCCC(C)C1 (stereo unspecified)	-13.09%	23.2%	6.66%
OCCNc1nc(Nc2ccc(Cl)c(Cl)c2)nc2ccccc12	17.26%	-35.4%	-25.8%
CCCc1c(CC)c(=N)c2ccccc2n1C	-31.4%	-39.2%	-32.4%
CCCCCCn1c(=N)n(CC(O)COc2cccc(C)c2)c2ccccc21.Cl (stereo unspecified)	1.158%	-52.7%	-17.6%
CCc1c(C)c(=N)c2ccccc2n1C.I	-36.84%	-21.8%	-14.1%
CCCCN(CCCC)S(=O)(=O)c1ccc(NC(=O)c2ccco2)cc1	-10.62%	30.9%	-25.1%

Compound	inhibition (Plasmodium berghei)	inhibition (Plasmodium falciparum [1])	inhibition (Plasmodium falciparum [2])
CC1(c2ccccc2)Nc2ccccc2-c2nc3ccccc3n21 (stereo unspecified)	-11.28%	11.7%	0.151%
c1ccc2c(NCCc3c[nH]c4ccccc34)c3ccccc3nc2c1	-6.399%	5.59%	2.57%
CC(=O)c1sc(NC(=O)Nc2ccc(C)cc2C)nc1C	-22.74%	-39.7%	-20.1%
COc1ccc(-c2cc(=O)oc3c4c(ccc23)OCN(Cc2ccc(F)cc2)C4)cc1	-11.79%	-29.3%	-14.6%
COc1ccc(-c2nc(N3CCN(C(=O)C4CCCCC4)CC3)c3c4c(sc3n2)CCCC4)cc1	-8.277%	1.21%	-9.88%
C=C(C)CCC(C)N1CCC(N2CCC(C(=O)NCCc3ccccc3)CC2)CC1 (stereo unspecified)	-5.335%	9.7%	-6.85%
Cc1ccc2c(C)nc(Nc3nc(C)cc(-c4ccccc4)n3)nc2c1	-0.3138%	-11.5%	-39.7%
COc1ccc(C)c2sc(N(Cc3cccnc3)C(=O)c3ccc(C#N)cc3)nc12	2.145%	-18.7%	-37.8%
Cc1sc(NC(=O)c2ccccc2)c(C(c2cccs2)N2CCN(c3ccccc3)CC2)c1C (stereo unspecified)	-17.69%	8.21%	-14.4%
Cl.OC(CNCc1ccccc1)Cn1c2ccccc2c2ccccc21 (stereo unspecified)	3.967%	-10.2%	11.4%
Nc1ccc(-c2nc3cc(Oc4ccc(Oc5ccc6[nH]c(-c7ccc(N)cc7)nc6c5)cc4)ccc3[nH]2)cc1	13.14%	3.94%	-54.1%
O=C(Nc1ccc(CN2CCOCC2)cc1)c1ccc(-c2ccc(Br)cc2)o1	-6.99%	14.4%	-17.9%
CCOc1cc(Br)c(C(C)NC(=O)c2cccc(OC)c2)cc1OCC (stereo unspecified)	-20.12%	10.3%	-28.3%
CCOc1c(Cl)cc(CNCC(O)c2ccccc2)cc1OC (stereo unspecified)	-11.86%	-11.9%	-14.1%
Cc1c(C)n(CC(O)CNC2CCCCC2C)c2ccccc12 (stereo unspecified)	-21.36%	8.26%	-4.05%
COc1cccc(Nc2nc(N)c3ccccc3n2)c1.Cl	-11.42%	-35.2%	-36.4%

— ChEMBL document CHEMBL3301451, “MMV Malaria Box gametocyte functional viability assay screening”
